In US20240294522A1 (Lead Discovery Center GmbH, priority 2021, published 2024) one finds IC50 data, which are given here for 28 molecules.

One assay concerns the target T1, GRK5 (Homo sapiens, UniProt P34947).
T1 construct: purchased Thermo Scientific
Kind of assay: Lance Kinase Activity Assay, GRK5. To be noted: biochemical Lance kinase activity assay; class symbols A-F; read-out: GRK5 LANCE Assay (IC-50). In short, it runs like this: (§1)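 IC50s from sigmoidal dose-response over 0.0025-10 μM compound, with phosphorylated ULight substrate detected by Eu anti-phospho antibody FRET after EDTA quench.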
A general note: Time-resolved FRET reads energy transfer from a long-lived donor to a nearby acceptor.

Another assay concerns the target T2, GRK2 (Homo sapiens, UniProt P25098).
T2 construct: purchased Thermo Scientific
T2 sequence (P25098 1-689): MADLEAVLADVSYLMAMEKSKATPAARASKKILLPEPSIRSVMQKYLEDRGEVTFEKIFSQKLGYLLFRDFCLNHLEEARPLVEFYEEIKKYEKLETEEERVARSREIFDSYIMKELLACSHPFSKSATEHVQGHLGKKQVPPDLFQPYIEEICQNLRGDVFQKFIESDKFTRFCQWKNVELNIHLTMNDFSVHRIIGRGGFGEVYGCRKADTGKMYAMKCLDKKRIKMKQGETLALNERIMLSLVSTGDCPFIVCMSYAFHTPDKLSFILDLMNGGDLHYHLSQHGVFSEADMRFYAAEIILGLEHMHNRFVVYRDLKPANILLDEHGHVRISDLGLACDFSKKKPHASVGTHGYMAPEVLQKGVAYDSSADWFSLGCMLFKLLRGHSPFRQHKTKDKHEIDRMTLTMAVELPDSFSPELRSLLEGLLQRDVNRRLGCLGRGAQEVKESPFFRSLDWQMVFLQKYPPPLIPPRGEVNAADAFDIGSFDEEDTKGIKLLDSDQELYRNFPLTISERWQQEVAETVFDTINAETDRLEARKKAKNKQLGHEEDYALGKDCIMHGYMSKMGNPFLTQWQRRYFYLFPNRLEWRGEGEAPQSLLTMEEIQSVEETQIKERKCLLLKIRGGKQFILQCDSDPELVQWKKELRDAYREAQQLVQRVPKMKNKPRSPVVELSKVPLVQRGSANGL
Kind of assay: Lance Kinase Activity Assay, GRK2. The note with it: biochemical Lance kinase activity assay; class symbols A-F; read-out: GRK2 LANCE Assay (IC-50). The procedure, abridged: as §1

T1 sequence (P34947 whole entry): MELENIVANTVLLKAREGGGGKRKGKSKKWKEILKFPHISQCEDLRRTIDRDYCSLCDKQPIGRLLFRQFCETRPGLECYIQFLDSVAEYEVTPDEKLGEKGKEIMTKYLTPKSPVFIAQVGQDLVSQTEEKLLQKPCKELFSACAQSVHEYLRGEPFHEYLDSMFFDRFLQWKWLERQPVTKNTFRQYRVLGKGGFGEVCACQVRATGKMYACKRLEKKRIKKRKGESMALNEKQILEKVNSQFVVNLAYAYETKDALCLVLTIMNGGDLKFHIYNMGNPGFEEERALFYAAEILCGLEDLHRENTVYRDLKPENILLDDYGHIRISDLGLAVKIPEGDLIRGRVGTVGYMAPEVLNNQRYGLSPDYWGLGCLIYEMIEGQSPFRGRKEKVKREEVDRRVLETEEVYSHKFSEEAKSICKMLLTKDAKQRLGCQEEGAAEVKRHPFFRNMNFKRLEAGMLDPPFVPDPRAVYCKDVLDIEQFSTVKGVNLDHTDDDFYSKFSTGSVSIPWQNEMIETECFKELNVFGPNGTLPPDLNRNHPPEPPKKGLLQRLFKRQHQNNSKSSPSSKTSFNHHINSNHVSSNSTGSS

Regarding `O=C(/C=C/c1c[nH]c2nccc(Cl)c12)NCc1cccc(F)c1` [Example 8, (E)-3-(4-chloro-1H-pyrrolo[2,3-b]pyridin-3-yl)-N-(3-fluorobenzyl)acrylamide], the IC50 at GRK5 lay within 1000 to 10000 nM; on GRK2 it was 500 to 1000 nM.
On the same counts, the results for `CC[C@@H](NC(=O)/C(C#N)=C/c1c[nH]c2ncc(Cl)cc12)c1ccccc1` [Example 77, (R,E)-3-(5-chloro-1H-pyrrolo[2,3-b]pyridin-3-yl)-2-cyano-N-(1-phenylpropyl)acrylamide] are 100 to 500 nM and 1000 to 10000 nM.
On the same counts, the results for `COc1ccc([C@@H](C)NC(=O)/C=C/c2c[nH]c3ncc(-c4cccc(NS(C)(=O)=O)c4)cc23)cc1OC` [Example 193] are no more than 50 nM and 1000 to 10000 nM.
For the molecule `COc1ccc([C@@H](C)NC(=O)/C=C/c2c[nH]c3ncc(-c4cnn(C)c4C)cc23)cc1OC` [Example 202, (R,E)-N-(1-(3,4-dimethoxyphenyl)ethyl)-3-(5-(1,5-dimethyl-1H-pyrazol-4-yl)-1H-pyrrolo[2,3-b]pyridin-3-yl)acrylamide], the IC50 on GRK5 was no more than 50 nM; at GRK2, 1000 to 10000 nM.
On the same counts, the results for `N#C/C(=C\c1c[nH]c2ncccc12)C(=O)N[C@@H](c1ccccc1)C(F)(F)F` [Example 14, (S,E)-2-cyano-3-(1H-pyrrolo[2,3-b]pyridin-3-yl)-N-(2,2,2-trifluoro-1-phenylethyl)acrylamide] are 500 to 1000 nM and 1000 to 10000 nM.
With `COc1ccc([C@@H](C)NC(=O)/C(C#N)=C/c2c[nH]c3ncc(-c4ccncc4)cc23)cc1OC` [Example 143], the IC50 is no more than 50 nM on GRK5 and 1000 to 10000 nM on GRK2.
On the same counts, the results for `COc1ccc([C@@H](C)NC(=O)/C(C#N)=C/c2c[nH]c3ncc(-c4cnn(CC(C)C)c4)cc23)cc1OC` [Example 161, (R,E)-2-cyano-N-(1-(3,4-dimethoxyphenyl)ethyl)-3-(5-(1-isobutyl-1H-pyrazol-4-yl)-1H-pyrrolo[2,3-b]pyridin-3-yl)acrylamide] are no more than 50 nM and greater than 10000 nM.
On the same counts, the results for `Cc1c(-c2cnn(C)c2)cnc2[nH]cc(/C=C(\C#N)C(=O)N[C@H](C)c3ccccc3)c12` [Example 97, (R,E)-2-cyano-3-(4-methyl-5-(1-methyl-1H-pyrazol-4-yl)-1H-pyrrolo[2,3-b]pyridin-3-yl)-N-(1-phenylethyl)acrylamide] are 500 to 1000 nM and 500 to 1000 nM.
On the same counts, the results for `COc1ccc([C@@H](C)NC(=O)/C(C#N)=C/c2c[nH]c3ncc(-c4ccc(F)c(S(C)(=O)=O)c4)c(C)c23)cc1OC` [Example 245, (R,E)-2-cyano-N-(1-(3,4-dimethoxyphenyl)ethyl)-3-(5-(4-fluoro-3-(methylsulfonyl)phenyl)-4-methyl-1H-pyrrolo[2,3-b]pyridin-3-yl)acrylamide] are 500 to 1000 nM and greater than 10000 nM.
As for `COc1ccc([C@@H](C)NC(=O)/C=C/c2c[nH]c3ncc(-c4ccc(N5CCN(C(C)=O)CC5)cc4)cc23)cc1OC` [Example 182], the IC50 at GRK5 is no more than 50 nM; at GRK2 it was 100 to 500 nM.
On to `COc1ccc([C@@H](C)NC(=O)/C(C#N)=C/c2c[nH]c3ncc(-c4cccc(NS(C)(=O)=O)c4)cc23)cc1OC` [Example 151, (R,E)-2-cyano-N-(1-(3,4-dimethoxyphenyl)ethyl)-3-(5-(3-(methylsulfonamido)phenyl)-1H-pyrrolo[2,3-b]pyridin-3-yl)acrylamide], for which the figures for the IC50 at GRK5 and on GRK2 were no more than 50 nM and greater than 10000 nM, respectively.
For `N#C/C(=C\c1c[nH]c2ncc(C(F)(F)F)cc12)C(=O)NCc1ccccc1` [Example 71, (E)-N-benzyl-2-cyano-3-(5-(trifluoromethyl)-1H-pyrrolo[2,3-b]pyridin-3-yl)acrylamide], in that order: 1000 to 10000 nM and greater than 10000 nM.
On the same counts, the results for `COc1ccc([C@@H](C)NC(=O)/C=C/c2c[nH]c3ncc(-c4cccc(CN5CCN(C)CC5)c4)cc23)cc1OC` [Example 183] are no more than 50 nM and greater than 10000 nM.
For `N#C/C(=C\c1c[nH]c2ncccc12)C(=O)NCc1cc(F)cc(F)c1` [Example 67, (E)-2-cyano-N-(3,5-difluorobenzyl)-3-(1H-pyrrolo[2,3-b]pyridin-3-yl)acrylamide], in that order: 500 to 1000 nM and 500 to 1000 nM.
Turning to `Cc1nn(C)c2ccc([C@@H](C)NC(=O)/C(C#N)=C/c3c[nH]c4ncc(-c5cnn(C)c5)cc34)cc12` [Example 262, (R,E)-2-cyano-N-(1-(1,3-dimethyl-1H-indazol-5-yl)ethyl)-3-(5-(1-methyl-1H-pyrazol-4-yl)-1H-pyrrolo[2,3-b]pyridin-3-yl)acrylamide], the IC50 on GRK5 is no more than 50 nM; on GRK2, greater than 10000 nM.
Regarding `COc1ccc([C@@H](C)NC(=O)/C=C/c2c[nH]c3ncc(-c4cc(S(C)(=O)=O)ccc4C)cc23)cc1OC` [Example 248, (R,E)-N-(1-(3,4-dimethoxyphenyl)ethyl)-3-(5-(2-methyl-5-(methylsulfonyl)phenyl)-1H-pyrrolo[2,3-b]pyridin-3-yl)acrylamide], the figures for the IC50 at GRK5 and on GRK2 were no more than 50 nM and greater than 10000 nM, respectively.
On the same counts, the results for `COc1ccc([C@@H](C)NC(=O)/C(C#N)=C/c2c[nH]c3ncc(-c4ccc(C(N)=O)cc4)cc23)cc1OC` [Example 126, (R,E)-4-(3-(2-cyano-3-((1-(3,4-dimethoxyphenyl)ethyl)amino)-3-oxoprop-1-en-1-yl)-1H-pyrrolo[2,3-b]pyridin-5-yl)benzamide] are 50 to 100 nM and greater than 10000 nM.
On the same counts, the results for `C[C@@H](NC(=O)/C(C#N)=C/c1c[nH]c2ncccc12)c1ccccc1Cl` [Example 12, (R,E)-N-(1-(2-chlorophenyl)ethyl)-2-cyano-3-(1H-pyrrolo[2,3-b]pyridin-3-yl)acrylamide] are 100 to 500 nM and 500 to 1000 nM.
On the same counts, the results for `C[C@@H](NC(=O)/C(C#N)=C/c1c[nH]c2ncccc12)c1ccc(F)cc1F` [Example 17, (R,E)-2-cyano-N-(1-(2,4-difluorophenyl)ethyl)-3-(1H-pyrrolo[2,3-b]pyridin-3-yl)acrylamide] are 100 to 500 nM and 100 to 500 nM.
Consider `N#C/C(=C\c1c[nH]c2ncccc12)C(=O)NCc1cccc(CS(N)(=O)=O)c1` [Example 27, (E)-2-cyano-3-(1H-pyrrolo[2,3-b]pyridin-3-yl)-N-(3-(sulfamoylmethyl)benzyl)-acrylamide], for which the IC50 on GRK5 and at GRK2 was 1000 to 10000 nM each time.
For the molecule `CNS(=O)(=O)c1ccccc1CNC(=O)/C(C#N)=C/c1c[nH]c2ncccc12` [Example 43, (E)-2-cyano-N-(2-(N-methylsulfamoyl)benzyl)-3-(1H-pyrrolo[2,3-b]pyridin-3-yl)acrylamide], the results for the IC50 on GRK5 and at GRK2 were 100 to 500 nM and 1000 to 10000 nM, respectively.
On the same counts, the results for `COc1ccc([C@@H](C)NC(=O)/C(C#N)=C/c2c[nH]c3ncc(-c4cnn(Cc5ccccc5)c4)cc23)cc1OC` [Example 159] are 100 to 500 nM and greater than 10000 nM.
For `N#C/C(=C\c1c[nH]c2ncccc12)C(=O)NCc1ccccc1C#N` [Example 35, (E)-2-cyano-N-(2-cyanobenzyl)-3-(1H-pyrrolo[2,3-b]pyridin-3-yl)acrylamide], in that order: 100 to 500 nM and 1000 to 10000 nM.
For `N#C/C(=C\c1c[nH]c2ncccc12)C(=O)NCc1ccc(F)cc1` [Example 57, (E)-2-cyano-N-(4-fluorobenzyl)-3-(1H-pyrrolo[2,3-b]pyridin-3-yl)acrylamide], in that order: 100 to 500 nM and 1000 to 10000 nM.
In the case of `CN(C)c1ccccc1CNC(=O)/C(C#N)=C/c1c[nH]c2ncccc12` [Example 25, (E)-2-cyano-N-(2-(dimethylamino)benzyl)-3-(1H-pyrrolo[2,3-b]pyridin-3-yl)acrylamide], the IC50 at GRK5 was 1000 to 10000 nM; at GRK2, greater than 10000 nM.
For the molecule `COc1ccc([C@@H](C)NC(=O)/C=C/c2c[nH]c3ncc(-c4cccc(S(=O)(=O)C5CC5)c4)cc23)cc1OC` [Example 216, (R,E)-3-(5-(3-(cyclopropylsulfonyl)phenyl)-1H-pyrrolo[2,3-b]pyridin-3-yl)-N-(1-(3,4-dimethoxyphenyl)ethyl)acrylamide], the figures for the IC50 on GRK5 and at GRK2 were no more than 50 nM and 1000 to 10000 nM, respectively.
Consider `N#C/C(=C\c1c[nH]c2ncccc12)C(=O)NCc1ccccc1CN1CCOCC1` [Example 37, (E)-2-cyano-N-(2-(morpholinomethyl)benzyl)-3-(1H-pyrrolo[2,3-b]pyridin-3-yl)acrylamide], for which the IC50 at GRK5 is 1000 to 10000 nM; at GRK2, greater than 10000 nM.
In the case of `N#C/C(=C\c1c[nH]c2ncccc12)C(=O)NCc1ccccc1Cl` [Example 62, (E)-N-(2-chlorobenzyl)-2-cyano-3-(1H-pyrrolo[2,3-b]pyridin-3-yl)acrylamide], the IC50 on GRK5 was in the range of 100 to 500 nM; at GRK2 it was 1000 to 10000 nM.
